Assay results taken from the NIST ThermoML archive (doi:10.1021/je050020m).

Assay: xn = mol fraction of the nth substance listed
Conditions: Liquid, Vibrating tube method

CCCCCCCCCC [decane] + O=C=O
Conditions	mass density [kg/m3]
362.65 K, 10044 kPa, x2 = 0.2369	691.88
362.65 K, 11011 kPa, x2 = 0.2369	693.13
362.65 K, 12005 kPa, x2 = 0.2369	694.38
362.65 K, 13039 kPa, x2 = 0.2369	695.64
362.65 K, 14013 kPa, x2 = 0.2369	696.82
362.65 K, 15072 kPa, x2 = 0.2369	698.07
362.65 K, 15510 kPa, x2 = 0.9663	452.61
362.65 K, 16012 kPa, x2 = 0.2369	699.18
362.65 K, 16012 kPa, x2 = 0.9663	471.04
362.65 K, 17007 kPa, x2 = 0.9663	504.42
362.65 K, 17009 kPa, x2 = 0.2369	700.33
362.65 K, 18008 kPa, x2 = 0.2369	701.44
362.65 K, 18010 kPa, x2 = 0.9663	534.34
362.65 K, 19013 kPa, x2 = 0.9663	561.23
362.65 K, 19020 kPa, x2 = 0.2369	702.57
362.65 K, 20006 kPa, x2 = 0.2369	703.64
362.65 K, 20015 kPa, x2 = 0.9663	585.01
362.65 K, 21029 kPa, x2 = 0.9663	606.13
362.65 K, 21068 kPa, x2 = 0.2369	704.82
362.65 K, 22007 kPa, x2 = 0.2369	705.81
362.65 K, 22007 kPa, x2 = 0.9663	624.31
362.65 K, 23022 kPa, x2 = 0.9663	641.03
362.65 K, 23055 kPa, x2 = 0.2369	706.93
362.65 K, 24015 kPa, x2 = 0.9663	655.59
362.65 K, 24030 kPa, x2 = 0.2369	707.95
362.65 K, 25028 kPa, x2 = 0.9663	669.28
362.65 K, 25056 kPa, x2 = 0.2369	709.02
362.66 K, 2031 kPa, x2 = 0.0551	678.97
362.66 K, 3029 kPa, x2 = 0.0551	680.17
362.66 K, 4134 kPa, x2 = 0.0551	681.5
362.66 K, 5034 kPa, x2 = 0.0551	682.58
362.66 K, 6050 kPa, x2 = 0.0551	683.77
362.66 K, 7045 kPa, x2 = 0.0551	684.91
362.66 K, 8030 kPa, x2 = 0.0551	686.02
362.66 K, 9020 kPa, x2 = 0.0551	687.12
362.66 K, 9024 kPa, x2 = 0.4536	693.68
362.66 K, 10012 kPa, x2 = 0.4536	695.47
362.66 K, 10044 kPa, x2 = 0.0551	688.25
362.66 K, 11025 kPa, x2 = 0.0551	689.34
362.66 K, 11031 kPa, x2 = 0.4536	697.25
362.66 K, 11987 kPa, x2 = 0.0551	690.35
362.66 K, 12002 kPa, x2 = 0.4536	698.93
362.66 K, 13025 kPa, x2 = 0.0551	691.46
362.66 K, 13028 kPa, x2 = 0.4536	700.66
362.66 K, 14008 kPa, x2 = 0.4536	702.25
362.66 K, 14075 kPa, x2 = 0.0551	692.5
362.66 K, 15024 kPa, x2 = 0.4536	703.87
362.66 K, 15026 kPa, x2 = 0.0551	693.52
362.66 K, 16000 kPa, x2 = 0.4536	705.42
362.66 K, 16020 kPa, x2 = 0.0551	694.47
362.66 K, 17003 kPa, x2 = 0.0551	695.45
362.66 K, 17017 kPa, x2 = 0.4536	706.96
362.66 K, 18002 kPa, x2 = 0.4536	708.44
362.66 K, 18032 kPa, x2 = 0.0551	696.46
362.66 K, 19030 kPa, x2 = 0.0551	697.38
362.66 K, 19030 kPa, x2 = 0.4536	709.94
362.66 K, 19998 kPa, x2 = 0.0551	698.32
362.66 K, 20001 kPa, x2 = 0.4536	711.37
362.66 K, 21029 kPa, x2 = 0.4536	712.8
362.66 K, 21052 kPa, x2 = 0.0551	699.32
362.66 K, 22014 kPa, x2 = 0.4536	714.18
362.66 K, 22028 kPa, x2 = 0.0551	700.22
362.66 K, 22996 kPa, x2 = 0.0551	701.1
362.66 K, 23024 kPa, x2 = 0.4536	715.57
362.66 K, 24006 kPa, x2 = 0.4536	716.91
362.66 K, 24036 kPa, x2 = 0.0551	702.1
362.66 K, 25008 kPa, x2 = 0.0551	702.93
362.66 K, 25025 kPa, x2 = 0.4536	718.29
